Data as given in patent publication US20260146045A1, “COMPOSITIONS AND USES THEREOF” (Solve Therapeutics, Inc., priority 2022, published 2026).

System: SKBR3, a breast cancer cell line
Experiment: in vitro cytotoxicity assay (CellTiter-Glo viability)
Format: cell-based
Details: Homo sapiens, SK-BR-3, SKBR3 cells, 72 hours at 37° C., luminometer
Description: The ability of compounds to inhibit cell growth was measured using in vitro cytotoxicity assay.
Cells were cultured in log phase growth and split into 96-well plates. Each cell-line was plated at a slightly different concentration but ranged from 5×10^3 to 50x 10+ cells/well. Cells, in duplicate, were incubated with 3-fold serial dilution of a particular immunoconjugate starting at 3000 or 1000 nanomolar (3000, 1000, 333, 111, 37, 12.3, 4.1, 1.37, 0.46, 0.15 nanomolar) for 72 hours at 37° C. and 5% CO2. After treatment the cells were incubated with an equal volume of CellTiter-Glo® reagent (Promega Inc.) for 15 minutes at room temperature, and viability was determined by a luminometer.

With `CC[C@@]1(O)C(=O)OCc2c1cc1n(c2=O)Cc2c-1nc1cc(F)ccc1c2CNC(=O)CN` [Compound 7] the EC50 was 89 nM.
`CC[C@@]1(O)C(=O)OCc2c1cc1n(c2=O)Cc2c-1nc1ccc(O)cc1c2CNC(=O)CN` [Compound 13] was tested, and the EC50 was 1050 nM.
Work on `CC[C@@]1(O)C(=O)OCc2c1cc1n(c2=O)Cc2c-1nc1cc(F)ccc1c2CNC(=O)CO` [Compound 8] yielded an EC50 of 5.6 nM.
With `CC[C@@]1(O)C(=O)OCc2c1cc1n(c2=O)Cc2c-1nc1ccc(O)cc1c2CNC(=O)CO` [Compound 14] the EC50 was 516 nM.
